From PubChem BioAssay (NCI)
Where “and” joins values, the source holds several entries; their conditions need not be identical. Equal entries are not always repeated.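 A five-concentration, 48-hour dose response in 96-well plates underlies each endpoint, interpolated linearly between surrounding concentrations. The concentration for 50% growth inhibition is given as GI50. TGI denotes the concentration required for complete inhibition of growth.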

Tests used:
Assay in all cases: NCI-60 cell line screen, 48 h
MALME-3M melanoma = tested on: MALME-3M melanoma
OVCAR-5 ovarian = tested on: OVCAR-5 ovarian
MDA-MB-435 = tested on: MDA-MB-435
NCI-H23 lung = tested on: NCI-H23 lung
CAKI-1 renal = tested on: CAKI-1 renal
IGROV1 ovarian = tested on: IGROV1 ovarian
SK-MEL-28 melanoma = tested on: SK-MEL-28 melanoma
UACC-62 melanoma = tested on: UACC-62 melanoma
SN12C renal = tested on: SN12C renal
RPMI-8226 leukemia = tested on: RPMI-8226 leukemia
MDA-N = tested on: MDA-N
SNB-75 CNS = tested on: SNB-75 CNS

Compound	TGI (MALME-3M melanoma)	TGI (OVCAR-5 ovarian) [µM]	TGI (MDA-MB-435) [µM]	TGI (NCI-H23 lung) [µM]	TGI (CAKI-1 renal) [µM]	TGI (IGROV1 ovarian)	TGI (SK-MEL-28 melanoma) [µM]	TGI (UACC-62 melanoma) [µM]	TGI (SN12C renal) [µM]	TGI (RPMI-8226 leukemia) [µM]	TGI (MDA-N) [µM]	TGI (SNB-75 CNS) [µM]	GI50 (SNB-75 CNS) [µM]	GI50 (OVCAR-5 ovarian) [µM]	GI50 (MDA-MB-435) [µM]	GI50 (NCI-H23 lung) [µM]	GI50 (RPMI-8226 leukemia) [µM]	GI50 (MALME-3M melanoma)	GI50 (IGROV1 ovarian)	GI50 (UACC-62 melanoma)
O=[N+]([O-])c1ccc(Nc2nc3ccccc3s2)cc1	46.1 µM	84.6	> 100	34.5	> 100	21.2 µM	> 100	58.7	–	–	–	–	–	–	–	–	–	–	–	–
Cc1nn(-c2ccccc2)c2[nH]c(=S)cnc12	> 100 µM	> 100	> 100	> 100	> 100	> 100 µM	> 100	> 100	> 100	> 100	> 100	–	–	–	–	–	–	–	–	–
COC(=O)c1ccccc1/C=C1\Cc2cc(C)cc(C)c2C1=O	> 100 µM	> 100	–	> 100	–	> 100 µM	> 100	> 100	> 100	> 100	> 100	> 100	–	–	–	–	–	–	–	–
O=C(CCc1ccc(O)cc1)NCCc1cccc(OCc2ccccc2)c1	79.6 µM	> 100	38.6	71.6	> 100	> 100 µM	63.2	34	> 100	–	68.4	–	–	–	–	–	–	–	–	–
COc1cc(C2=C(C#N)C(N)OC3=C2COc2ccccc23)cc(OC)c1OC (stereo unspecified)	32.3 µM	> 100	> 100	> 100	–	> 100 µM	> 100	> 100	39.1	> 100	> 100	–	–	–	–	–	–	–	–	–
CCCCCCCCCCCCC(O)C1CCC(C(O)CCCCCCC(O)CCCCCCCC2=CC(C)OC2=O)O1 (stereo unspecified)	56.7 µM	> 100	> 100	> 100	71.9	> 100 µM	> 100	–	83.1	22.3	71.7	> 100	74.5	> 100	27	13.3	2.05	–	–	–
O=C(c1cccs1)N(C(=S)N1CCN(c2ccccn2)CC1)C1CCCCC1	> 100 µM	> 100	–	> 100	> 100	> 100 µM	> 100	> 100	> 100	> 100	–	> 100	–	–	–	–	–	–	–	–
C#C[C@]1(O)CCC2C3CCc4cc(Oc5nc(F)nc(-c6c7cc8ccccc8cc7c7n6CCS7)n5)ccc4C3CCC21C (stereo partly specified)	> 100 µM	–	–	> 100	–	> 100 µM	> 100	55.3	> 100	> 100	–	> 100	–	–	–	–	–	–	–	–
N=C(N)c1csc([C@@H]2O[C@H](CO)[C@@H](O)[C@H]2O)n1	> 100 µM	–	–	> 100	> 100	> 100 µM	> 100	–	> 100	> 100	–	> 100	–	–	–	–	–	–	–	–
Cn1c(Nc2ccccc2)c(C=Nc2ccccc2)c(=O)n(C)c1=O	–	> 100	> 100	> 100	–	> 100 µM	> 100	> 100	> 100	> 100	> 100	–	–	–	–	–	–	–	–	–
CCOC(=O)c1c(-c2ccc(O)c(OC)c2)c(C#N)c(=S)n(C2OC(COC(C)=O)C(OC(C)=O)C(OC(C)=O)C2OC(C)=O)c1-c1ccccc1 (stereo unspecified)	50.3 µM and > 100 µM	> 100	> 100	> 100	> 100	55.5 µM and > 100 µM	> 100	> 100	> 100	> 100	> 100	–	–	–	–	–	–	20.9 µM and 62.3 µM	18 µM and 79.7 µM	45.4 µM and > 100 µM
CC1=CC(=O)C(=O)C2=C1OC1(C2)C(C)CCC2C3(C)CCC(O)C(C)(C)C3CCC21C (stereo unspecified)	35.3 µM	37.2	–	31.3	33.8	34.2 µM	42.9	36.1	> 100	88.3	–	> 100	–	–	–	–	–	–	–	–
NC(CCP(=O)(O)CCC1C=CC=CC1)C(=O)O (stereo unspecified)	–	> 100	> 100	> 100	> 100	> 100 µM	> 100	> 100	> 100	> 100	> 100	> 100	–	–	–	–	–	–	–	–
COc1ccc(NC(C)=O)cc1C1CCC(=O)N1 (stereo unspecified)	> 100 µM	> 100	> 100	> 100	> 100	> 100 µM	> 100	> 100	> 100	> 100	–	> 100	–	–	–	–	–	–	–	–
CN(C(=O)Cc1ccc(Cl)c(Cl)c1)[C@@H]1CCCC[C@H]1[N+]1(C)CC=CC1	> 100 µM	> 100	> 100	> 100	> 100	> 100 µM	> 100	> 100	> 100	> 100	> 100	–	–	–	–	–	–	–	–	–
N#CC(Nc1ccccc1)c1ccc(C(C#N)Nc2ccccc2)cc1 (stereo unspecified)	> 100 µM	> 100	> 100	> 100	> 100	> 100 µM	> 100	> 100	> 100	–	> 100	–	–	–	–	–	–	–	–	–
CCCCCCCCC/C=C1\CC(CO)(COC(=O)C2CCCCC2)OC1=O (stereo unspecified)	31.9 µM	38	34.4	47	49.3	37.7 µM	30.5	46.9	35.2	–	38.8	32.9	–	–	–	–	–	–	–	–
O=C1c2ccccc2C2=Nc3ccncc3CN12	> 100 µM	> 100	–	> 100	> 100	> 100 µM	> 100	> 100	> 100	> 100	> 100	> 100	–	–	–	–	–	–	–	–
CNn1c(C)n[nH]c1=O	> 100 µM	> 100	> 100	> 100	> 100	> 100 µM	> 100	> 100	> 100	> 100	–	85.1	–	–	–	–	–	–	–	–
CCSC1=N/C(=C\c2ccco2)C(Cl)=N1	–	> 100	> 100	> 100	> 100	> 100 µM	> 100	> 100	> 100	> 100	> 100	> 100	–	–	–	–	–	–	–	–
